Read-outs that look alike come from different tables or passages of the source. Starred links: 1 amine or outer side, 2 acyl side, 3 side chain; linkers in the order of their positions; H or OH if unused. Non-standard residues stand in square brackets, D forms with d. Residues, ends and D or L forms follow the SMILES beside them. Groups on a side chain read outwards from the residue. *: point of attachment. C20 diacid = O=C(O)CCCCCCCCCCCCCCCCCCC(=O)*; C18 diacid = O=C(O)CCCCCCCCCCCCCCCCC(=O)*; γGlu = O=C(O)[C@H](CCC(=O)[*:2])N[*:1]; AEEA = NCCOCCOCC(=O)O; Aib = CC(C)(N)C(=O)O
Target: T1, human CRF2α receptor (Homo sapiens, UniProt Q13324)
T1 construct: expressed in transfected cells; host or cells: TeloHEAC
T1 sequence (Q13324 1-411): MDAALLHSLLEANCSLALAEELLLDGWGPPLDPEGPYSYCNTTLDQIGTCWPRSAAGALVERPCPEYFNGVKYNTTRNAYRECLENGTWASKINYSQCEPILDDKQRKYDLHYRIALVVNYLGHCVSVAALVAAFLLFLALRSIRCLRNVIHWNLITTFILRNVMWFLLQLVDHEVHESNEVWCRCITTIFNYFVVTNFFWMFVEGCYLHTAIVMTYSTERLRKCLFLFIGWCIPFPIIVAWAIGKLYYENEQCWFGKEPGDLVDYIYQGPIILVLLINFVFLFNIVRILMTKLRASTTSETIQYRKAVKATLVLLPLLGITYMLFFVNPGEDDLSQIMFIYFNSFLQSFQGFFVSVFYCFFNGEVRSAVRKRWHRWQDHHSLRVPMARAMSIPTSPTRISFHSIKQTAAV
Experiment: cAMP agonism at human CRF2 α receptor in TeloHEAC cells (Example 7)
Type: cell-based
Details: cAMP HTRF, TeloHEAC cells stably expressing human CRF2 α
Procedure, shortened: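 HTRF ratio 665/620 nm, read 1 h after lysis reagents, reports cAMP. Cells: thawed stocks, 2000/well, 30 min RT with compound in HBSS, 20 mM HEPES, 0 or 0.1% HSA, 2 mM IBMX. Activity normalised to UCN2 1000 nM = 100%; EC50 from half-maximal activation.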

[1] = 0% HSA, read-out: EC50 [nM], 0% HSA
[2] = 0.1% HSA, read-out: EC50 [nM], 0.1% HSA

| SMILES | EC50 [1] [nM] | EC50 [2] [nM] |
| --- | --- | --- |
| CC[C@H](C)[C@H](N)C(=O)N[C@H](C(=O)N[C@@H](CC(C)C)C(=O)N[C@@H](CO)C(=O)N[C@@H](CC(C)C)C(=O)N[C@@H](CC(=O)O)C(=O)N[C@H](C(=O)N1CCC[C@H]1C(=O)N[C@H](C(=O)NCC(=O)N[C@@H](CC(C)C)C(=O)N[C@@H](CCCCNC(=O)COCCOCCNC(=O)COCCOCCNC(=O)CC[C@H](NC(=O)CCCCCCCCCCCCCCCCC(=O)O)C(=O)O)C(=O)N[C@@H](CCC(N)=O)C(=O)N[C@H](C(=O)N[C@@H](CC(C)C)C(=O)N[C@@H](CC(C)C)C(=O)N[C@@H](CCC(=O)O)C(=O)N[C@@H](CCC(N)=O)C(=O)N[C@@H](CCC(=O)O)C(=O)N[C@@H](CCCCN)C(=O)N[C@@H](CCC(N)=O)C(=O)N[C@@H](CCC(=O)O)C(=O)N[C@@H](CCCCN)C(=O)N[C@@H](CCC(=O)O)C(=O)N[C@@H](CCCCN)C(=O)N[C@@H](CCC(N)=O)C(=O)N[C@@H](CCC(N)=O)C(=O)N[C@@H](C)C(=O)N[C@@H](CCC(=O)O)C(=O)N[C@H](C(=O)N[C@@H](CC(N)=O)C(=O)N[C@@H](CCCCN)C(=O)N[C@@H](CCCNC(=N)N)C(=O)N[C@H](C(=O)N[C@@H](CC(C)C)C(=O)N[C@@H](CCC(=O)O)C(=O)N[C@@H](CCCNC(=N)N)C(=O)N[C@H](C(N)=O)C(C)C)[C@@H](C)CC)[C@@H](C)O)[C@@H](C)CC)[C@@H](C)CC)C(C)C)C(C)C [compound 154] (H-IVLSLDVPIGLK([AEEA-AEEA-γGlu-C18 diacid])QILLEQEKQEKEKQQAETNKRILERV-NH2; N-terminus assumed) | 15 | 15.3 |
| CC[C@H](C)[C@H](N)C(=O)N[C@H](C(=O)N[C@@H](CC(C)C)C(=O)N[C@@H](CO)C(=O)N[C@@H](CC(C)C)C(=O)N[C@@H](CC(=O)O)C(=O)N[C@H](C(=O)N1CCC[C@H]1C(=O)N[C@H](C(=O)NCC(=O)N[C@@H](CC(C)C)C(=O)N[C@@H](CCCCNC(=O)COCCOCCNC(=O)COCCOCCNC(=O)CC[C@H](NC(=O)CCCCCCCCCCCCCCCCC(=O)O)C(=O)O)C(=O)N[C@@H](CCC(N)=O)C(=O)N[C@H](C(=O)N[C@@H](CC(C)C)C(=O)N[C@@H](CC(C)C)C(=O)N[C@@H](CCC(=O)O)C(=O)N[C@@H](CCC(N)=O)C(=O)N[C@@H](CCC(=O)O)C(=O)N[C@@H](CCCCN)C(=O)N[C@@H](CCC(N)=O)C(=O)N[C@@H](CCC(=O)O)C(=O)N[C@@H](CCCCN)C(=O)N[C@@H](CCC(=O)O)C(=O)N[C@@H](CCCCN)C(=O)N[C@@H](CCC(N)=O)C(=O)N[C@@H](CCC(N)=O)C(=O)N[C@@H](C)C(=O)N[C@@H](CCC(=O)O)C(=O)N[C@@H](CCCCN)C(=O)N[C@@H](CC(N)=O)C(=O)N[C@@H](CCCCN)C(=O)N[C@@H](CCCNC(=N)N)C(=O)N[C@H](C(=O)N[C@@H](CC(C)C)C(=O)N[C@@H](CCC(=O)O)C(=O)N[C@@H](CCCNC(=N)N)C(=O)N[C@H](C(N)=O)C(C)C)[C@@H](C)CC)[C@@H](C)CC)[C@@H](C)CC)C(C)C)C(C)C [compound 155] (H-IVLSLDVPIGLK([AEEA-AEEA-γGlu-C18 diacid])QILLEQEKQEKEKQQAEKNKRILERV-NH2) | 8.87 |  |
| CC[C@H](C)[C@H](N)C(=O)N[C@H](C(=O)N[C@@H](CC(C)C)C(=O)N[C@@H](CO)C(=O)N[C@@H](CC(C)C)C(=O)N[C@@H](CC(=O)O)C(=O)N[C@@H](C(=O)N1CCC[C@H]1C(=O)N[C@H](C(=O)N[C@@H](CCCCN)C(=O)N[C@@H](CC(C)C)C(=O)N[C@@H](CCCCNC(=O)COCCOCCNC(=O)COCCOCCNC(=O)CC[C@H](NC(=O)CC[C@H](NC(=O)CCCCCCCCCCCCCCCCC(=O)O)C(=O)O)C(=O)O)C(=O)N[C@@H](CCC(N)=O)C(=O)N[C@H](C(=O)N[C@@H](CC(C)C)C(=O)N[C@@H](CC(C)C)C(=O)N[C@@H](CCCCN)C(=O)N[C@@H](CCC(N)=O)C(=O)N[C@@H](CCC(=O)O)C(=O)N[C@@H](CCCNC(=N)N)C(=O)N[C@@H](CCC(N)=O)C(=O)N[C@@H](CCCCN)C(=O)N[C@@H](CCCCN)C(=O)N[C@@H](CCC(N)=O)C(=O)N[C@@H](CCCNC(=N)N)C(=O)N[C@@H](CCC(N)=O)C(=O)N[C@@H](CCC(N)=O)C(=O)N[C@@H](C)C(=O)N[C@@H](CCC(=O)O)C(=O)N[C@@H](CCCCN)C(=O)N[C@@H](CC(N)=O)C(=O)N[C@@H](CCCCN)C(=O)N[C@@H](CCC(N)=O)C(=O)N[C@H](C(=O)N[C@@H](CC(C)C)C(=O)N[C@@H](C)C(=O)N[C@@H](CCC(N)=O)C(=O)N[C@H](C(N)=O)C(C)C)[C@@H](C)CC)[C@@H](C)CC)[C@@H](C)CC)C(C)C)C(C)C [compound 176] (H-IVLSLD[dV]PIKLK([AEEA-AEEA-γGlu-γGlu-C18 diacid])QILLKQERQKKQRQQAEKNKQILAQV-NH2; N-terminus assumed) | 0.11 | 3.05 |

Compounds with a lower EC50 [1], results first:

| EC50 [1] [nM] | EC50 [2] [nM] | SMILES |
| --- | --- | --- |
| 0.06 | 3.64 | CC[C@H](C)[C@H](N)C(=O)N[C@H](C(=O)N[C@@H](CC(C)C)C(=O)N[C@@H](CO)C(=O)N[C@@H](CC(C)C)C(=O)N[C@@H](CC(=O)O)C(=O)N[C@@H](C(=O)N1CCC[C@H]1C(=O)N[C@H](C(=O)N[C@@H](CCCCN)C(=O)N[C@@H](CC(C)C)C(=O)N[C@@H](CCCCNC(=O)COCCOCCNC(=O)COCCOCCNC(=O)CC[C@H](NC(=O)CCCCCCCCCCCCCCCCCCC(=O)O)C(=O)O)C(=O)N[C@@H](CCC(N)=O)C(=O)N[C@H](C(=O)N[C@@H](CC(C)C)C(=O)N[C@@H](CC(C)C)C(=O)N[C@@H](CCCCN)C(=O)N[C@@H](CCC(N)=O)C(=O)N[C@@H](C)C(=O)N[C@@H](CCCNC(=N)N)C(=O)N[C@@H](CCC(N)=O)C(=O)N[C@@H](CCCCN)C(=O)NC(C)(C)C(=O)N[C@@H](CCC(N)=O)C(=O)N[C@@H](CCCNC(=N)N)C(=O)N[C@@H](C)C(=O)N[C@@H](CCC(N)=O)C(=O)N[C@@H](C)C(=O)N[C@@H](CCC(=O)O)C(=O)N[C@@H](CCCCN)C(=O)N[C@@H](CC(N)=O)C(=O)N[C@@H](CCCCN)C(=O)N[C@@H](CCCNC(=N)N)C(=O)N[C@H](C(=O)N[C@@H](CC(C)C)C(=O)N[C@@H](CCC(=O)O)C(=O)N[C@@H](CCCNC(=N)N)C(=O)N[C@H](C(N)=O)C(C)C)[C@@H](C)CC)[C@@H](C)CC)[C@@H](C)CC)C(C)C)C(C)C [compound 175] (H-IVLSLD[dV]PIKLK([AEEA-AEEA-γGlu-C20 diacid])QILLKQARQK[Aib]QRAQAEKNKRILERV-NH2; N-terminus assumed) |
| 0.07 | 5.19 | CC[C@H](C)[C@H](N)C(=O)N[C@H](C(=O)N[C@@H](CC(C)C)C(=O)N[C@@H](CO)C(=O)N[C@@H](CC(C)C)C(=O)N[C@@H](CC(=O)O)C(=O)N[C@@H](C(=O)N1CCC[C@H]1C(=O)N[C@H](C(=O)N[C@@H](CCCCN)C(=O)N[C@@H](CC(C)C)C(=O)N[C@@H](CCCCNC(=O)COCCOCCNC(=O)COCCOCCNC(=O)CC[C@H](NC(=O)CC[C@H](NC(=O)CCCCCCCCCCCCCCCCCCC(=O)O)C(=O)O)C(=O)O)C(=O)N[C@@H](CCC(N)=O)C(=O)N[C@H](C(=O)N[C@@H](CC(C)C)C(=O)N[C@@H](CC(C)C)C(=O)N[C@@H](CCCCN)C(=O)N[C@@H](CCC(N)=O)C(=O)N[C@@H](CCC(=O)O)C(=O)N[C@@H](CCCNC(=N)N)C(=O)N[C@@H](CCC(N)=O)C(=O)N[C@@H](CCCCN)C(=O)N[C@@H](CCCCN)C(=O)N[C@@H](CCC(N)=O)C(=O)N[C@@H](CCCNC(=N)N)C(=O)N[C@@H](CCC(N)=O)C(=O)N[C@@H](CCC(N)=O)C(=O)N[C@@H](C)C(=O)N[C@@H](CCC(=O)O)C(=O)N[C@@H](CCCCN)C(=O)N[C@@H](CC(N)=O)C(=O)N[C@@H](CCCCN)C(=O)N[C@@H](CCC(N)=O)C(=O)N[C@H](C(=O)N[C@@H](CC(C)C)C(=O)N[C@@H](C)C(=O)N[C@@H](CCC(N)=O)C(=O)N[C@H](C(N)=O)C(C)C)[C@@H](C)CC)[C@@H](C)CC)[C@@H](C)CC)C(C)C)C(C)C [compound 177] (H-IVLSLD[dV]PIKLK([AEEA-AEEA-γGlu-γGlu-C20 diacid])QILLKQERQKKQRQQAEKNKQILAQV-NH2) |
| 0.04 | 3.77 | CC[C@H](C)[C@H](N)C(=O)N[C@H](C(=O)N[C@@H](CC(C)C)C(=O)N[C@@H](CO)C(=O)N[C@@H](CC(C)C)C(=O)N[C@@H](CC(=O)O)C(=O)N[C@@H](C(=O)N1CCC[C@H]1C(=O)N[C@H](C(=O)N[C@@H](CCCCN)C(=O)N[C@@H](CC(C)C)C(=O)N[C@@H](CCCCNC(=O)COCCOCCNC(=O)COCCOCCNC(=O)CC[C@H](NC(=O)CCCCCCCCCCCCCCCCCCC(=O)O)C(=O)O)C(=O)N[C@@H](CCC(N)=O)C(=O)N[C@H](C(=O)N[C@@H](CC(C)C)C(=O)N[C@@H](CC(C)C)C(=O)N[C@@H](CCCCN)C(=O)N[C@@H](CCC(N)=O)C(=O)N[C@@H](CCC(=O)O)C(=O)N[C@@H](CCCNC(=N)N)C(=O)N[C@@H](CCC(N)=O)C(=O)N[C@@H](CCCCN)C(=O)N[C@@H](CCCCN)C(=O)N[C@@H](CCC(N)=O)C(=O)N[C@@H](CCCNC(=N)N)C(=O)N[C@@H](CCC(N)=O)C(=O)N[C@@H](CCC(N)=O)C(=O)N[C@@H](C)C(=O)N[C@@H](CCC(=O)O)C(=O)N[C@@H](CCCCN)C(=O)N[C@@H](CC(N)=O)C(=O)N[C@@H](CCCCN)C(=O)N[C@@H](CCC(N)=O)C(=O)N[C@H](C(=O)N[C@@H](CC(C)C)C(=O)N[C@@H](C)C(=O)N[C@@H](CCC(N)=O)C(=O)N[C@H](C(N)=O)C(C)C)[C@@H](C)CC)[C@@H](C)CC)[C@@H](C)CC)C(C)C)C(C)C [compound 178] (H-IVLSLD[dV]PIKLK([AEEA-AEEA-γGlu-C20 diacid])QILLKQERQKKQRQQAEKNKQILAQV-NH2; N-terminus assumed) |

Reference: patent US12679878B2, “CRF2 receptor agonists and their use in therapy” (SANOFI, priority 2020, dated 2026)
